Reference: ChEMBL document CHEMBL5729604, “Dihydrothieno[3,2-b]pyridine compounds” (2023)

target: Flap endonuclease 1 (Homo sapiens, UniProt P39748); experiment: Enzymatic IC50 Assays: FEN1, EXO1 or XPG enzyme was incubated with compound or vehicle (DMSO) and the FAM-labeled DNA oligomer substrate in a microtiter plate. The stop buffer contains EDTA to stop the enzymatic reaction. The plate is read for fluorescence intensity. The high control (DMSO) with high fluorescence intensity represents no inhibition of enzymatic reaction while the low control (10 μM) with low fluorescence intensity represents full inhibition of enzymatic reaction.
Sequence (P39748 whole entry): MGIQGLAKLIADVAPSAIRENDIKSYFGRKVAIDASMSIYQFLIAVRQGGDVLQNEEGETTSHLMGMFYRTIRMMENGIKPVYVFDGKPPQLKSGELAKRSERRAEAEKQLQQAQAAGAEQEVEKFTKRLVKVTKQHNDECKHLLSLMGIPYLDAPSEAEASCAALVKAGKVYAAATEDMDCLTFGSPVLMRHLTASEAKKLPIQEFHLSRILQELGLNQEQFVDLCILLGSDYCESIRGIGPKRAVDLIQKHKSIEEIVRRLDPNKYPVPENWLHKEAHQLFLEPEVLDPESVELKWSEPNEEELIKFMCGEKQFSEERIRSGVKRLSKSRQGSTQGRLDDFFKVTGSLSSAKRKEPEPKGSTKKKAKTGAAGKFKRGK

IC50, < 200 nM:
O=C(O)c1c(O)c(=O)n(Cc2cnc3ccccn23)c2ccsc12, COc1cccc(-n2cc(Cn3c(=O)c(O)c(C(=O)O)c4sccc43)cn2)c1, COc1ccc(Cn2c(=O)c(O)c(C(=O)O)c3sccc32)cn1, COc1ccc(Cn2cc(Cn3c(=O)c(O)c(C(=O)O)c4sccc43)cn2)cc1, Cc1c(Cn2c(=O)c(O)c(C(=O)O)c3sccc32)cnn1C, O=C(O)c1c(O)c(=O)n(Cc2cnn(-c3cccc(Cl)c3)c2)c2ccsc12
